Data taken from patent US10913781B2, “Pepducin design and use” (Tufts Medical Center, Inc., priority 2011, dated 2021).

Legend:
PAR2 [1] = target: T1, PAR2 (Homo sapiens, UniProt P55085); assay: Calcium flux screen for PAR2 pepducin agonist and antagonist activity in SW620 cells; type: cell-based; design: SW620 colon adenocarcinoma cells that endogenously express PAR2; endogenous in cells; host or cells: SW620 (in A7 the SW620 cells were additionally stably transfected with PAR1); details: 3-4 μM and 14-15 μM pepducin
Target sequence in this assay (P55085 26-397): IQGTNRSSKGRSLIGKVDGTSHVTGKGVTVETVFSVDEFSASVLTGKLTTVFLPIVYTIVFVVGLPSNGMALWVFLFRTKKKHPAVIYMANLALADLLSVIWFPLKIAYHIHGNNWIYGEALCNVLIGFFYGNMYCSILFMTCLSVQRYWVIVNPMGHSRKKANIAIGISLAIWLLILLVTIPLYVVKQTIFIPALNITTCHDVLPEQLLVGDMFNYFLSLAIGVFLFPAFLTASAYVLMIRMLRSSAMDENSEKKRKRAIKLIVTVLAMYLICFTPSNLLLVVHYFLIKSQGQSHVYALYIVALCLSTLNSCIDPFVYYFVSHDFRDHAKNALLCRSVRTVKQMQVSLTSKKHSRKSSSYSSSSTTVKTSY
Protocol: (§4) (A) Agonist and antagonist activity of third intracellular (i3) loop PAR2 pepducins (structure shown on top) using calcium flux assays with SW620 colon adenocarcinoma cells that endogenously express PAR2. Each column of three calcium flux traces corresponds to the i3 pepducin sequence shown above. The top row is the agonist activity of 3-4 μM pepducin and the middle row is the agonist activity of 14-15 μM pepducin. […] Final concentration of DMSO vehicle was 0.2%. […] (C) Agonist activity for each pepducin from (A) is reported as initial velocity of calcium flux at 4 μM pepducin (†), or at 14-15 μM pepducin (‡).

PAR4 = target: T2, PAR4 (Homo sapiens, UniProt Q96RI0); assay: [3H]-InsP formation in COS7 cells transfected with PAR4; type: cell-based; design: expressed in transfected cells; host or cells: COS7; details: 100 μM AYPGKF, 30 min
T2 sequence (Q96RI0 18-385): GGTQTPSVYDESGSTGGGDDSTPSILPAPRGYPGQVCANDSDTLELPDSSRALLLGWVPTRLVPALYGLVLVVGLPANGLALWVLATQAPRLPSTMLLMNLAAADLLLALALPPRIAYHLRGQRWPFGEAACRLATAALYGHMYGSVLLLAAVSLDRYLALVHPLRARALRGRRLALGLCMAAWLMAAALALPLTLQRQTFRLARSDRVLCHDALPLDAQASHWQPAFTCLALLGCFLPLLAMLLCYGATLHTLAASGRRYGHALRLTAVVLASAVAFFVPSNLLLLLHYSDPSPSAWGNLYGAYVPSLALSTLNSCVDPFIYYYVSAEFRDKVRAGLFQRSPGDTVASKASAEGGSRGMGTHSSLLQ
Protocol: (§1) (A) PAR2 antagonist pepducins P2pal-18S and P2pal-14GQ inhibit calcium flux induced by PAR2 (SLIGRL) (SEQ ID NO:4) but not PAR1 (TFLLRN) (SEQ ID NO:2) agonists. SW620 cells were stably transfected with PAR1 and pretreated for 1 min with various concentrations of P2pal-18S or P2pal-14GQ and then stimulated with 30 μM PAR agonist. […] Cells were stimulated with 1 μM TFLLRN (SEQ ID NO:2), 1 μM SLIGRL (SEQ ID NO:4) or 100 μM AYPGKF (SEQ ID NO:5) and [^3H]-InsP formation measured over 30 min. (C) SW620 cells were treated with the indicated concentrations of P2pal-18S or P2pal-14GQ in the upper well of an 8-μm pore Boyden chamber and allowed to migrate for 18 h towards 10 μM of the PAR2 specific agonist SLIGRL in the lower chamber. The migration to RPMI/0.1% FBS represents random migration. (D) Migration of HEK cells transiently transfected with PAR2 (wild-type, WT), or PAR2-R36A/PAR2-RQ toward chemotactic gradients of 30 nM trypsin in the absence or presence of the indicated concentration of P2pal-18S for 18 h in a transwell apparatus ([…]). Data (n=2-4) are mean±SEM. *, P<0.05 and **, P<0.005.

PAR1 [2] = target: T3, PAR1 (Homo sapiens, UniProt P25116); assay: Calcium flux in SW620 cells stably transfected with PAR1, TFLLRN stimulus; type: cell-based; details: 30 μM TFLLRN
T3 sequence (P25116 22-425): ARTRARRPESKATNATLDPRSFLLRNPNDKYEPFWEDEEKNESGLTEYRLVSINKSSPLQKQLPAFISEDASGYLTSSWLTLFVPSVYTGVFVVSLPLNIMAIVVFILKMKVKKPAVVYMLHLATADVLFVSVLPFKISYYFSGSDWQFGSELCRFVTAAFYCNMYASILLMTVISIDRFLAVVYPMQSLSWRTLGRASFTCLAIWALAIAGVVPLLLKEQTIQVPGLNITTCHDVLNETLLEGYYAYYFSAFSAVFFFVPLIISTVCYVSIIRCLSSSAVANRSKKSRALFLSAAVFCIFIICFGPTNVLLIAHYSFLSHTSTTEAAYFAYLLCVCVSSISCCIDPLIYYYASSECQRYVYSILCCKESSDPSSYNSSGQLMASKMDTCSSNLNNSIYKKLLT
Protocol: as §1

PAR2 [3] = target: PAR2 (Mus musculus, UniProt P55086); assay: λ-carrageenan/kaolin-induced mouse paw edema and inflammation (PAR2 pepducin); type: in vivo; design: from tissue; host or cells: living C57BL/6 mice, hindpaw; details: 10 mg/kg s.c.
PAR2 [4] = target: T1, PAR2; assay: Ligand-dependent endocytosis of PAR2; type: cell-based
Source text: Additionally, we tested whether P2pal-18S inhibited proteolytic cleavage of PAR2 or endocytosis (DeFea K A, et al. (2000) J Cell Biol 148: 1267-81; Roosterman D, et al. (2003) Am J Physiol Cell Physiol 284: C1319-29; Stalheim L, et al. (2005) Mol Pharmacol 67: 78-87). […] Therefore, the P2pal-18S i3 loop pepducin can inhibit PAR2-dependent calcium signaling, PLC-b inositol phosphate formation, and cell migration, but not proteolytic cleavage or endocytosis.
Target sequence in this assay (P55085 26-397): as the sequence (P55085 26-397) above

PAR2 [5] = target: T1, PAR2; assay: Agonist | (%)^†; design: SW620 colon adenocarcinoma cells that endogenously express PAR2; endogenous in cells; host or cells: SW620 (in A7 the SW620 cells were additionally stably transfected with PAR1); details: 4 µM
Target sequence in this assay (P55085 26-397 limits assumed): as the sequence (P55085 26-397) above
Protocol: as §4

PAR1 [6] = target: T3, PAR1; assay: Human neutrophil chemotaxis to TFLLRN; type: cell-based; design: endogenous in cells; details: 10 μM TFLLRN
Protocol: (§2) (A) Human neutrophils (n=4 normal volunteers) were analyzed for surface expression of human PAR1, PAR2, and PAR4 by flow cytometry with PAR-specific antibodies. […] Chemotaxis index is the ratio of directed versus random migration over 30 min through a 5-μm pore filter.
(§3) P2pal-18S had no effect on PAR1-dependent platelet aggregation (FIG. 5A). Neither P2pal-18S nor P2pal-14GQ caused membrane disruption or apoptosis as assessed by propidium iodide uptake in SW620 cells with up to 30 μM concentrations of pepducin (FIG. 5B).

CXCR1/CXCR2 = assay: Human neutrophil chemotaxis to IL-8; type: cell-based; details: 100 nM IL-8
Protocol: as §2, §3

PAR2 [7] = target: T1, PAR2; assay: PLC-b inositol phosphate formation, PAR2 (SLIGRL); type: cell-based; design: expressed in transfected cells; host or cells: COS7
Protocol: as §1
Target sequence in this assay (P55085 26-397): as the sequence (P55085 26-397) above
Additionally, we tested whether P2pal-18S inhibited proteolytic cleavage of PAR2 or endocytosis (DeFea K A, et al. (2000) J Cell Biol 148: 1267-81; Roosterman D, et al. (2003) Am J Physiol Cell Physiol 284: C1319-29; Stalheim L, et al. (2005) Mol Pharmacol 67: 78-87). […]

Chain of PAR2 (Mus musculus, UniProt P55086) (P55086 26-399): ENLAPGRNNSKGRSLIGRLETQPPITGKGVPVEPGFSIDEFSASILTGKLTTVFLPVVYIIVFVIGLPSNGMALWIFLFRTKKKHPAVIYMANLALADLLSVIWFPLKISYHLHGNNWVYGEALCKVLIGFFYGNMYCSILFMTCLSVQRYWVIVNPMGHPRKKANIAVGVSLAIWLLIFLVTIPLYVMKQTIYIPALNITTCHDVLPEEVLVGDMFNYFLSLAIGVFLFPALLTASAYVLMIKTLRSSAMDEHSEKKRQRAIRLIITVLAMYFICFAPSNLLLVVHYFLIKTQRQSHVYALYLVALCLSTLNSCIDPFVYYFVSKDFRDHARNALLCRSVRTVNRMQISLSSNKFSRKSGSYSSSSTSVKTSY

CCCCCCCCCCCCCCCC(=O)N[C@@H](CCCNC(=N)N)C(=O)N[C@@H](CO)C(=O)N[C@@H](CO)C(=O)N[C@@H](C)C(=O)N[C@@H](CCSC)C(=O)N[C@@H](CC(=O)O)C(=O)N[C@@H](CCC(=O)O)C(=O)N[C@@H](CC(N)=O)C(=O)N[C@@H](CO)C(=O)N[C@@H](CCC(=O)O)C(=O)N[C@@H](CCCCN)C(=O)N[C@@H](CCCCN)C(=O)N[C@@H](CCCNC(=N)N)C(=O)N[C@@H](CCCCN)C(=O)N[C@@H](CO)C(=O)N[C@@H](C)C(=O)N[C@H](C(=O)N[C@@H](CCCCN)C(N)=O)[C@@H](C)CC [P2pal-18S]
Agonist activity (calcium flux) (PAR2 [1]): no detectable or otherwise significant agonist activity
Inhibition of InsP signaling from PAR4 (PAR4): do not inhibit
Inhibition of PAR1 calcium flux (PAR1 [2]): did not inhibit
Effect on increase in myeloperoxidase activity in hindpaw tissue (PAR2 [3]; 7 h after λ-carrageenan/kaolin, WT mice): blocked
Protection against leukocytic infiltrates in the dermis of the footpads (PAR2 [3]; 7 h post λ-carrageenan/kaolin): 60%
Effect on swelling in PAR2-deficient mice (PAR2 [3]; PAR2-deficient mice): did not further reduce swelling
Decrease in λ-carrageenan/kaolin-induced edema (PAR2 [3]; WT C57BL/6 mice): 50%
Effect on paw edema in mast cell-deficient mice (PAR2 [3]; mast cell-deficient mice, λ-carrageenan/kaolin): could not be further reduced
Inhibition of ligand-dependent endocytosis of PAR2 (PAR2 [4]): did not inhibit
Agonist | (%)^† (PAR2 [5]): 3%
Antagonist activity, neutrophil chemotaxis, PAR1 (PAR1 [6]): no antagonist activity
Antagonist activity, neutrophil chemotaxis, CXCR1/2 IL-8 receptors (CXCR1/CXCR2): no antagonist activity
Inhibition of PAR2-dependent PLC-b inositol phosphate formation (PAR2 [7]): can inhibit
